{"source": "patent US20250099448A1", "about": "“HETEROCYCLIC COMPOUNDS” (Hoffmann-La Roche Inc., priority 2022, published 2025)"}
{"biological_target": "T1, MAGL protein (Homo sapiens, UniProt Q99685)", "T1 sequence (Q99685 1-303)": "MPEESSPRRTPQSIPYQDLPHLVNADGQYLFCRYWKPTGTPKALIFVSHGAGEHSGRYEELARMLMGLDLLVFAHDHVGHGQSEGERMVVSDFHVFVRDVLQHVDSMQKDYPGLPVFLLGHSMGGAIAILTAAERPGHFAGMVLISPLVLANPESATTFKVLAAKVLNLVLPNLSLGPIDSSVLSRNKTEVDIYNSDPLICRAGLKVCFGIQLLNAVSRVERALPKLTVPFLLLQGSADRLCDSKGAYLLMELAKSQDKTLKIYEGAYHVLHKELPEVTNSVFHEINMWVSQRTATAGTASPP", "assay": "2-AG assay: MAGL inhibitory activity by hydrolysis of 2-arachidonoylglycerol to arachidonic acid, followed by mass spectrometry", "format": "biochemical", "conditions": "8 μM 2-arachidonoylglycerol, 15 min preincubation, 30 min reaction at RT, RapidFire MS readout", "in_short": "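MAGL was preincubated 15 min at RT with compound (12.5 to […], 3-fold steps) in 50 mM TRIS, 1 mM EDTA, 0.01% Tween-20, 2.5% DMSO. The reaction ran 30 min at RT with 8 μM 2-AG. Arachidonic acid was quantified by RapidFire SPE-MS/MS against a d8-arachidonic acid internal standard.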", "units": {"IC50": "nM"}}
{"molecule": "O=C(N1CC2(CC(c3nc(C4CC4)n[nH]3)C2)C1)N1CC2(CN(Cc3cnc(C(F)(F)F)s3)C2)C1", "note": "[compound 784]", "IC50": 5.18}
{"molecule": "Cc1nn(CC(F)(F)F)cc1CN1CC2(C1)CN(C(=O)N1CC3(CC(c4nc(C5CC5)n[nH]4)C3)C1)C2", "note": "[compound 440]", "IC50": 109}
{"molecule": "O=C(N1CC2(CC(Cn3cc(C(F)(F)F)cn3)C2)C1)N1CC2(CC(c3nc(C4(F)CC4)n[nH]3)C2)C1", "note": "[compound 523]", "IC50": 0.53}
{"molecule": "O=C(N1CC2(CC(c3nnc(C4CC4)[nH]3)C2)C1)N1CC2(CC(N3CCS(=O)(=O)CC3)C2)C1", "note": "[compound 220]", "IC50": 207}
{"molecule": "CC(C)(C)CS(=O)(=O)N1CC2(CN(C(=O)N3CC4(CC(c5nnc(C6CC6)[nH]5)C4)C3)C2)C1", "note": "[compound 212]", "IC50": 58.1}
{"molecule": "CS(=O)(=O)c1ccc(CN2CCC3(CC2)CN(C(=O)N2CC4(CC(c5nnc(C6CC6)[nH]5)C4)C2)C3)cc1", "note": "[compound 179]", "IC50": 33.6}
{"molecule": "O=C(N1CC2(CC(Cc3cn4cc(C(F)(F)F)nc4cn3)C2)C1)N1CC2(CC(c3nc(C4CC4)n[nH]3)C2)C1", "note": "[compound 991]", "IC50": 2.03}
{"molecule": "O=C(N1CC(C23CC(C(F)(F)c4ccc(C(F)(F)F)cc4)(C2)C3)C1)N1CC2(CC(c3nc(C4(O)CC4)n[nH]3)C2)C1", "note": "[compound 974]", "IC50": 6.17}
{"molecule": "O=C(N1CC(C23CC(S(=O)(=O)c4ccc(C(F)(F)F)cn4)(C2)C3)C1)N1CC2(CC(c3nc(C4CC4)n[nH]3)C2)C1", "note": "[compound 807]", "IC50": 478}
{"molecule": "NC1(c2nnc(C3CC4(C3)CN(C(=O)N3CC5(CC(Cc6ccc(C(F)(F)F)cn6)C5)C3)C4)[nH]2)CC1", "note": "[Example 948, [6-[5-(1-aminocyclopropyl)-4H-1,2,4-triazol-3-yl]-2-azaspiro[3.3]heptan-2-yl]-[6-[[5-(trifluoromethyl)-2-pyridyl]methyl]-2-azaspiro[3.3]heptan-2-yl]methanone]", "IC50": 2.35}
{"molecule": "O=C(N1CC(OCc2cncc(C(F)(F)F)c2)C1)N1CC2(CC(c3nnc(C4CC4)[nH]3)C2)C1", "note": "[compound 329]", "IC50": 38.1}
{"molecule": "CP(C)(=O)c1cc(CC2CC3(C2)CN(C(=O)N2CC4(CC(c5nnc(C6CC6)[nH]5)C4)C2)C3)cc(C(F)(F)F)c1", "note": "[compound 884]", "IC50": 1.47}
{"molecule": "O=C(N1CC(C23CC(CNC4(C(F)(F)F)CC4)(C2)C3)C1)N1CC2(CC(c3nnc(C4CC4)[nH]3)C2)C1", "note": "[compound 341]", "IC50": 0.12}
{"molecule": "O=C(N1CC(c2cnc(NCC3(C(F)(F)F)CC3)cn2)C1)N1CC2(CC(c3nnc(C4CC4)[nH]3)C2)C1", "note": "[compound 255]", "IC50": 0.68}
{"molecule": "CS(=O)(=O)c1cccc(CC2CC3(C2)CN(C(=O)N2CC4(CC(c5nnc(C6(O)CC6)[nH]5)C4)C2)C3)c1", "note": "[compound 16]", "IC50": 1.51}
{"molecule": "O=C(N1CC2(CC(Cc3cnn(CC(F)(F)F)c3)C2)C1)N1CC2(CC(c3nc(C4(O)CC4)n[nH]3)C2)C1", "note": "[compound 765]", "IC50": 4.49}
{"molecule": "O=C(N1CC(OCc2ccc(C(F)(F)F)cc2F)C1)N1CC2(CC(c3nnc(C(O)C(F)(F)F)[nH]3)C2)C1", "note": "(stereo not drawn) [compound 336]", "IC50": 55.8}
{"molecule": "Cc1cc(C2CC2)n(C23CC(C4CN(C(=O)N5CC6(CC(c7nc(C8(O)CC8)n[nH]7)C6)C5)C4)(C2)C3)n1", "note": "[compound 588]", "IC50": 40.4}
{"molecule": "N#Cc1cnn(CC2CC3(C2)CN(C(=O)N2CC4(CC(c5nc(C6CC6)n[nH]5)C4)C2)C3)c1", "note": "[compound 801]", "IC50": 8.16}
{"molecule": "O=C(N1CC2(CC(Cc3ncc(Cl)cc3F)C2)C1)N1CC2(CC(c3nc(C4CC4)n[nH]3)C2)C1", "note": "[compound 613]", "IC50": 0.91}
{"molecule": "O=C(N1CCC(COc2ccc(C(F)(F)F)nc2)CC1)N1CC2(CC(c3nnc(C4CC4)[nH]3)C2)C1", "note": "[Example 903]", "IC50": 125}
{"molecule": "CS(=O)(=O)c1cc(Cl)ccc1C12CC(C3CN(C(=O)N4CC5(CC(c6nnc(C7CC7)[nH]6)C5)C4)C3)(C1)C2", "note": "[compound 562]", "IC50": 0.2}
{"molecule": "O=C(N1CC2(CCN(c3ncc(Cl)cc3F)CC2)C1)N1CC2(CC(c3nnc(C4CC4)[nH]3)C2)C1", "note": "[compound 281]", "IC50": 1.02}
{"molecule": "Cc1c(C(F)(F)F)n[nH]c1CN1CC2(C1)CN(C(=O)N1CC3(CC(c4nnc(C5CC5)[nH]4)C3)C1)C2", "note": "[compound 874]", "IC50": 2.8}
{"molecule": "O=C(N1CC2(CCN(S(=O)(=O)C34CC(C(F)(F)F)(C3)C4)CC2)C1)N1CC2(CC(c3nnc(C4CC4)[nH]3)C2)C1", "note": "[compound 237]", "IC50": 17.1}
{"molecule": "O=C(N1CC(c2ccc(N3CC(C(F)(F)F)C3)nc2)C1)N1CC2(CC(c3nnc(C4CC4)[nH]3)C2)C1", "note": "[compound 258]", "IC50": 0.64}
{"molecule": "COc1nc(C(F)(F)F)cnc1CC1CC2(C1)CN(C(=O)N1CC3(CC(c4nc(C5CC5)n[nH]4)C3)C1)C2", "note": "[compound 943]", "IC50": 0.09}
{"molecule": "O=C(N1CC2(CC(c3ncn[nH]3)C2)C1)N1CC2(CC(c3ccc(C(F)(F)F)cc3F)C2)C1", "note": "[compound 982]", "IC50": 4970}
{"molecule": "N#Cc1ccc(CC2CC3(C2)CN(C(=O)N2CC4(CC(c5nc(C6(F)CC6)n[nH]5)C4)C2)C3)cc1C(F)(F)F", "note": "[compound 569]", "IC50": 0.09}
{"molecule": "O=C(N1CC2(CC(c3nc(C4CC4)n[nH]3)C2)C1)N1CC2(CN(Cc3cc(C4CCC4)[nH]n3)C2)C1", "note": "[compound 614]", "IC50": 5.49}
{"molecule": "N#Cc1ccc(CC2CC3(C2)CN(C(=O)N2CC4(CC(c5nc(C6COC6)n[nH]5)C4)C2)C3)c(F)c1", "note": "[compound 797]", "IC50": 9.31}
{"molecule": "O=C(N1CC2(CC(c3nnc(C4(O)CC4)[nH]3)C2)C1)N1CC2(C1)CN(S(=O)(=O)c1ccccc1C(F)(F)F)C2", "note": "[compound 97]", "IC50": 27.9}
{"molecule": "O=C(N1CC2(CC(c3nnc(C4CC4)[nH]3)C2)C1)N1CC(O)(c2ccc(N3CC(C(F)(F)F)C3)cc2)C1", "note": "[Example 306, [6-(5-Cyclopropyl-4H-1,2,4-triazol-3 yl)-2-azaspiro[3.3]heptan-2-yl]-[3-hydroxy-3-[4-[3-(trifluoromethyl)azetidin-1-yl]phenyl]azetidin-1 yl)methanone]", "IC50": 2.19}
{"molecule": "O=C(N1CC2(CC(Cc3ccc(C(F)(F)F)cn3)C2)C1)N1CC2(CC(c3nnc(C4(O)CC4)[nH]3)C2)C1", "note": "[compound 111]", "IC50": 0.6}
{"molecule": "NC(=O)c1cc(CC2CC3(C2)CN(C(=O)N2CC4(CC(c5nc(C6CC6)n[nH]5)C4)C2)C3)ccc1OC(F)(F)F", "note": "[compound 914]", "IC50": 0.27}
{"molecule": "O=C(N1CC2(CC(Cn3cnc(C(F)(F)F)c3)C2)C1)N1CC2(CC(c3nnc(C4(O)CC4)[nH]3)C2)C1", "note": "[compound 64]", "IC50": 37.9}
{"molecule": "O=C(N1CC2(CC(c3nc(C4(O)CC4)n[nH]3)C2)C1)N1CC2(CC[C@H](Cc3cccc(S(=O)(=O)C(F)(F)F)c3)C2)C1", "note": "[compound 741]", "IC50": 0.15}
{"molecule": "O=C(N1CC2(CC(Cc3nc(C(F)(F)F)co3)C2)C1)N1CC2(CC(c3nnc(C4(O)CC4)[nH]3)C2)C1", "note": "[compound 62]", "IC50": 8.06}
{"molecule": "O=C(N1CC2(CC(c3nnc(C4(O)CC4)[nH]3)C2)C1)N1CC2(C1)CN(S(=O)(=O)c1ccccc1OC(F)(F)F)C2", "note": "[compound 95]", "IC50": 47.5}
{"molecule": "CS(=O)(=O)c1cc(Cl)ccc1CC1CC2(CCN(C(=O)N3CC4(CC(c5nnc(C6CC6)[nH]5)C4)C3)C2)C1", "note": "(stereo not drawn) [Example 414, [2-(4-chloro-2-mesyl-benzyl)-6-azaspiro[3.4]octan-6-yl]-[6-(5-cyclopropyl-4H-1,2,4-triazol-3-yl)-2-azaspiro[3.3]heptan-2-yl]methanone]", "IC50": 38.1}
{"molecule": "CC(C)c1ccc(N(C)c2ccc(C3CN(C(=O)N4CC5(CC(c6nnc(C7CC7)[nH]6)C5)C4)C3)cn2)cc1", "note": "[compound 382]", "IC50": 21.4}
{"molecule": "Cc1cc(C(F)(F)F)nn1CC1CC2(C1)CN(C(=O)N1CC3(CC(c4nc(C5CC5)n[nH]4)C3)C1)C2", "note": "[compound 445]", "IC50": 0.24}
{"molecule": "O=C(N1CC2(CC(c3nc(C4(O)CC4)n[nH]3)C2)C1)N1CC2(CN(Cc3ccc(S(=O)(=O)C(F)(F)F)cc3F)C2)C1", "note": "[compound 451]", "IC50": 1.52}
{"molecule": "Cc1cc(C2CC2)n(CC2CC3(C2)CN(C(=O)N2CC4(CC(c5nc(C6CC6)n[nH]5)C4)C2)C3)n1", "note": "[compound 846]", "IC50": 0.78}
{"molecule": "O=C(N1CC2(CCC(S(=O)(=O)c3cccc(C(F)(F)F)c3)CC2)C1)N1CC2(CC(c3nc(C4(O)CC4)n[nH]3)C2)C1", "note": "[compound 421]", "IC50": 50.4}
{"molecule": "O=C(N1CC2(CC(c3nc(C4CC4)n[nH]3)C2)C1)N1CC2(CN(Cc3nc(C(F)(F)F)no3)C2)C1", "note": "[compound 662]", "IC50": 11.9}
{"molecule": "Cc1nn(C)c(Cl)c1CN1CCN(C(=O)N2CC3(CC(c4nc(C5CC5)n[nH]4)C3)C2)CC1", "note": "[Example 881, [4-[(5-chloro-1,3-dimethyl-pyrazol-4-yl)methyl]piperazino]-[6-(3-cyclopropyl-1H-1,2,4-triazol-5-yl)-2-azaspiro[3.3]heptan-2-yl]methanone]", "IC50": 670}
{"molecule": "O=C(N1CC2(CC(CNCC3(C(F)(F)F)CC3)C2)C1)N1CC2(CC(c3nnc(C4CC4)[nH]3)C2)C1", "note": "[compound 352]", "IC50": 3.94}
{"molecule": "CS(=O)(=O)c1ccc(CC2CC3(C2)CN(C(=O)N2CC4(CC(c5nc(C6CC(F)(F)C6)n[nH]5)C4)C2)C3)cc1", "note": "[compound 582]", "IC50": 167}
{"molecule": "N=[S@@](=O)(c1cccc(CC2CC3(C2)CN(C(=O)N2CC4(CC(c5nnc(C6CC6)[nH]5)C4)C2)C3)c1)C(F)(F)F", "note": "(single isomer, unassigned) [compound 127]", "IC50": 0.06}
{"molecule": "O=C(N1CC2(CC(c3nnc(C4CC4)[nH]3)C2)C1)N1CC2(CN(Cc3cc(F)cc(F)c3)C2)C1", "note": "[compound 159]", "IC50": 6.08}
{"molecule": "O=C(N1CC2(CC(Cc3ccc4nc(C(F)(F)F)nn4c3)C2)C1)N1CC2(CC(c3nc(C4CC4)n[nH]3)C2)C1", "note": "[compound 993]", "IC50": 0.8}
{"molecule": "O=C(N1CC2(CC(c3cncc(F)c3)C2)C1)N1CC2(CC(c3nnc(C4CC4)[nH]3)C2)C1", "note": "[compound 497]", "IC50": 22.3}
{"molecule": "O=C(N1CC(c2ccc(C3(C(F)(F)F)CC3)cc2)C1)N1CC2(CC(c3ncn[nH]3)C2)C1", "note": "[compound 635]", "IC50": 950}
